Data taken from patent US11447486B2, “2-amino-benzimidazole derivatives and their use as 5-lipoxygenase and/or prostaglandin E synthase inhibitors” (INSTITUT PASTEUR KOREA, priority 2014, dated 2022).

How the values were obtained:
[1] = biological target: T1, human 5-LOX (Homo sapiens, UniProt P09917); experiment: 5-LOX enzyme activity, fluorescence method (5-HPETE, H2DCFDA); assay type: biochemical; details: read-out: 5-LO (IC50)
T1 construct: purchased Cayman 60402; host or cells: insect cells (lysate)
T1 sequence (P09917 1-674): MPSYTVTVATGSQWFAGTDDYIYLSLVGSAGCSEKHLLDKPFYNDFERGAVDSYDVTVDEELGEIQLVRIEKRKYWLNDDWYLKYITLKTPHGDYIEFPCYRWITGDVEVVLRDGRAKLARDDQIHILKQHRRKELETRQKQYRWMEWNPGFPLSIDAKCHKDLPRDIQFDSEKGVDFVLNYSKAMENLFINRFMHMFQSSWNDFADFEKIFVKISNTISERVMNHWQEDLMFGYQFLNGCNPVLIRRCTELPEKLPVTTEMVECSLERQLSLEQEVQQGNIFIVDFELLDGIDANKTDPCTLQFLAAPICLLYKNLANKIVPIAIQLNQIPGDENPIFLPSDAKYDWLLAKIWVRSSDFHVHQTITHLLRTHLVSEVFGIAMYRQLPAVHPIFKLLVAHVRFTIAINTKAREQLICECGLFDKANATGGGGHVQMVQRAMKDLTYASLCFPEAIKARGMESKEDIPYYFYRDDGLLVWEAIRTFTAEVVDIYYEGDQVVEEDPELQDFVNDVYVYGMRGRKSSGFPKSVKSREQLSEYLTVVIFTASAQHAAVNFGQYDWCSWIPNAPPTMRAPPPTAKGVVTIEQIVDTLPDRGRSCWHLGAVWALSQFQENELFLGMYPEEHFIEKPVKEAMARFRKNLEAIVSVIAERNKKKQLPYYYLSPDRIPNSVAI
Experimental: The activity of compounds against 5-LOX were determined by measuring LTB4 (leukotriene B4) levels and/or by a fluorescence method. Both approaches are outlined in more detail below;
The compound, in a dose response manner(0.5 nM to 10 uM), and enzyme mixture was pre-incubated for 5 minutes, and the enzymatic reaction was initiated by addition of ATP and arachidonic acid to a final concentration of 100 uM and 3 uM, respectively. […] All steps were carried out at room temperature.

[2] = test system: Rat basophilic leukemia (RBL) cells; experiment: LTB4 secretion assay in RBL (rat basophilic leukemia cells); assay type: cell-based; details: Rattus norvegicus, RBL
Experimental: Rat basophilic leukemia (RBL) cells (ATCC, Cat #CRL-2256) were maintained in EMEM (ATCC, Cat #30-2003) supplemented with 15% FBS. The day before RBL assay, cells were seeded at a concentration of 2×10^4 cells per well in 96-well plates. The media was replaced with 100 ul of EMEM supplemented with 0.5% FBS and compounds in dose response(5 nM to 100 uM) were added. After 15 min of pre-incubation at 37° C., arachidonic acid and calcium ionophore (A23187) were added to give a final concentration of 2.5 uM and 5 uM, respectively. After a further 10 min incubation at 37° C., culture supernatant was transferred and quantification of LTB4 was done with a Leukotriene B4 EIA kit (Cayman, Cat #520111) as instructed.

SMILES	IC50 [1] [µM]	EC50 [2] [µM]
Nc1nc2ccc(Nc3n[nH]cc3C(=O)NC3CCCC3)cc2n1CCOc1ccc(OC(F)(F)F)cc1 [Compound 18]	1 to 10	–
Nc1ccc2[nH]c(NC(=O)c3ccc(F)cc3)nc2c1 [Compound 26]	1 to 10	> 20
Cn1c(N2CCC(Oc3ccc(F)cc3)CC2)nc2cc(N)ccc21 [Compound 35]	1 to 10	> 20
CN(C)c1nc2cc(NC3COC3)ccc2n1CCOc1ccc(Cl)cc1 [Compound 41]	1 to 10	10 to 20
CN(C)c1nc2ccc(Nc3ccn(C)n3)cc2n1CCOc1ccc(OC(F)(F)F)cc1 [Compound 45]	> 10	< 10
CN(C)c1nc2cc(Nc3ccn(C)n3)ccc2n1CCOc1ccc(OC(F)(F)F)cc1 [Compound 46]	> 10	< 10
CCN(CC)c1nc2cc(N)ccc2n1CCc1ccc(F)cc1 [Compound 47]	> 10	> 20
Nc1ccc2c(c1)nc(N1CCCC1)n2CCc1ccc(F)cc1 [Compound 50]	1 to 10	10 to 20
CC(C)(C)Nc1nc2cc(N)ccc2n1CC(=O)Nc1ccc(OC(F)(F)F)cc1 [Compound 69]	1 to 10	< 10
Nc1cnc2c(c1)nc(N1CCCC1)n2CCOc1ccc(OC(F)(F)F)cc1 [Compound 72]	> 10	> 20
Nc1ccc2nc(-n3cc(F)cn3)n(CCOc3ccc(OC(F)(F)F)cc3)c2c1 [Compound 78]	> 10	10 to 20
Nc1ccc2c(c1)nc(-n1cc(F)cn1)n2CCOc1ccc(OC(F)(F)F)cc1 [Compound 82]	> 10	10 to 20
Nc1cnc2nc(N3CCCC3)n(CCOc3ccc(OC(F)(F)F)cc3)c2c1 [Compound 83]	1 to 10	> 20
FC(F)(F)Oc1ccc(OCCn2c(N3CCCC3)nc3cc(N4CCC4)ccc32)cc1 [Compound 85]	1 to 10	> 20
Nc1ccc2nc(NCc3ccc4cc(Cl)ccc4n3)[nH]c2c1 [Compound 156]	< 1	10 to 20
Cn1c(N2CCC(c3ccc(OC(F)(F)F)cc3)CC2)nc2ccc(N)cc21 [Compound 157]	< 1	> 20
Nc1ccc2nc(NCc3ccc4cccnc4c3)[nH]c2c1 [Compound 159]	< 1	> 20
Nc1ccc2nc(NCc3ccc4c(c3)NCCC4)[nH]c2c1 [Compound 162]	< 1	< 10
Cn1c(N2CCC(COc3ccc(Cl)cc3)CC2)nc2ccc(N)cc21 [Compound 163]	< 1	> 20
Cn1c(NCc2ccc(Oc3ccc(Cl)cc3)cc2)nc2ccc(N)cc21 [Compound 167]	< 1	> 20
Nc1ccc2nc(NCc3ccc(C(=O)C4CCCC4)cc3)[nH]c2c1 [Compound 168]	< 1	< 10
Nc1ccc2nc(NCC(Oc3ccc(Cl)cc3)c3ccccc3)[nH]c2c1 (stereo not shown) [Compound 169]	< 1	< 10
Cn1c(NCc2ccc(Oc3ccc(Cl)cc3)cc2)nc2ccc(NCC(N)=O)cc21 [Compound 170]	< 1	10 to 20
Cn1c(NCc2ccc(Oc3ccc(Cl)cc3)cc2)nc2ccc(NCC#N)cc21 [Compound 171]	< 1	> 20
Cn1ccnc1C(=O)c1ccc(CNc2nc3ccc(N)cc3[nH]2)cc1 [Compound 173]	< 1	> 20
Cn1c(NCN2CC(Cc3ccccc3)OC2=O)nc2ccc(N)cc21 (stereo not shown) [Compound 174]	1 to 10	> 20
Nc1ccc2nc(N3CCC(C(=O)c4ccc(OC(F)(F)F)cc4)C3)[nH]c2c1 (stereo not shown) [Compound 178]	< 1	10 to 20
COC(=O)c1ccc(CNc2ccc3nc(N(C)C)[nH]c3c2)cc1 [Compound 179]	< 1	< 10
Clc1ccc(OC(CNc2nc3ccc(NC4COC4)cc3[nH]2)c2ccccc2)cc1 (stereo not shown) [Compound 180]	< 1	< 10

Other lines, results leading:

IC50 [1] [µM]	EC50 [2] [µM]	SMILES
< 1	–	Nc1ccc2[nH]c(NCc3ccc(N4CCC(Oc5ccc(Cl)cc5)CC4)cc3)nc2c1 [Compound 2]
< 1	–	O=C(NC1CCCC1)c1c[nH]nc1Nc1ccc2[nH]c(NCc3ccc(Oc4ccc(Cl)cc4)cc3)nc2c1 [Compound 19]
< 1	10 to 20	Nc1ccc2[nH]c(NCc3ccc(F)cc3)nc2c1 [Compound 28]
< 1	< 10	Fc1ccc(CNc2nc3cc(NCc4cnc[nH]4)ccc3[nH]2)cc1 [Compound 29]
< 1	> 20	CC(C)(CO)Nc1ccc2[nH]c(NCc3ccc(Cl)cc3F)nc2c1 [Compound 31]
< 1	< 10	Fc1ccc(CCNc2nc3cc(NC4COC4)ccc3[nH]2)cc1 [Compound 33]
< 1	10 to 20	Fc1ccc(OC2CCN(c3nc4cc(NC5COC5)ccc4[nH]3)CC2)cc1 [Compound 36]
< 1	10 to 20	CN(C)c1nc2ccc(N)cc2n1CCOc1ccc(Cl)cc1 [Compound 39]
< 1	10 to 20	CN(C)c1nc2ccc(NC3COC3)cc2n1CCOc1ccc(Cl)cc1 [Compound 40]
< 1	< 10	Cn1c(NCCOc2ccc(Cl)c(Cl)c2)nc2ccc(N)cc21 [Compound 60]
< 1	10 to 20	Cn1c(NCCOc2ccc(Cl)c(Cl)c2)nc2cc(N)ccc21 [Compound 61]
< 1	10 to 20	Nc1nc2ccc(N3CCC(Oc4ccc(OC(F)(F)F)cc4)C3)cc2[nH]1 (stereo not shown) [Compound 63]
< 1	> 20	Nc1ccc2[nH]c(N3CCC(C(=O)Nc4ccc(OC(F)(F)F)cc4)C3)nc2c1 (stereo not shown) [Compound 64]
< 1	10 to 20	Nc1ccc2[nH]c(N3CCC(Oc4ccc(OC(F)(F)F)cc4Cl)C3)nc2c1 (stereo not shown) [Compound 71]
< 1	> 20	Cn1c(N2CCC(C(=O)Nc3ccc(OC(F)(F)F)cc3)C2)nc2ncc(N)cc21 (stereo not shown) [Compound 76]
< 1	< 10	FC(F)(F)Oc1ccc(OCCn2c(N3CCCC3)nc3ccc(N4CCC4)cc32)cc1 [Compound 84]
< 1	> 20	Nc1cc(Cl)c2nc(N3CCCC3)n(CCOc3ccc(OC(F)(F)F)cc3)c2c1 [Compound 89]
< 1	< 10	c1ccc(Oc2ccc(CNc3nc4cc(NC5CCC5)ccc4[nH]3)cc2)cc1 [Compound 96]
< 1	< 10	Nc1ccc2nc(N3CCC(F)(F)C3)n(CCOc3ccc(OC(F)(F)F)cc3)c2c1 [Compound 100]
< 1	< 10	CCC(Nc1nc2cc(N)ccc2[nH]1)c1ccc(Oc2ccc(Cl)cc2)cc1 (stereo not shown) [Compound 124]
< 1	< 10	CC(Nc1ccc2[nH]c(N(C)C)nc2c1)c1ccc(Oc2ccc(Cl)cc2)cc1 (stereo not shown) [Compound 131]
< 1	10 to 20	O=S(=O)(c1ccc(Cl)cc1)c1ccc(CNc2nc3cc(NC4COC4)ccc3[nH]2)cc1 [Compound 133]
< 1	< 10	CC(CC(F)(F)F)Nc1ccc2[nH]c(NCc3ccc(Oc4ccc(Cl)cc4)cc3)nc2c1 (stereo not shown) [Compound 134]
< 1	> 20	Nc1ccc2nc(NCc3ccc(C(O)c4ccccn4)cc3)[nH]c2c1 (stereo not shown) [Compound 139]
< 1	< 10	CC(Cc1ccc(Cl)cc1Cl)Nc1nc2ccc(N)cc2n1Cc1ccccc1 (stereo not shown) [Compound 140]
< 1	> 20	Nc1ccc2nc(NCc3ccc(C(=O)c4ccccn4)cc3)[nH]c2c1 [Compound 141]
< 1	10 to 20	FC(F)(F)Oc1ccc(OC2CCN(c3ccc4nc(NCCCN5CCOCC5)[nH]c4c3)C2)cc1 (stereo not shown) [Compound 142]
< 1	10 to 20	FC(F)(F)Oc1ccc(OC2CCN(c3ccc4nc(NCCN5CCOCC5)[nH]c4c3)C2)cc1 (stereo not shown) [Compound 143]
< 1	10 to 20	CC(Cc1ccc(Cl)cc1Cl)Nc1nc2cc(N)ccc2n1Cc1ccccc1 (stereo not shown) [Compound 144]
< 1	10 to 20	COc1cc2[nH]c(NCc3ccc(Oc4ccc(Cl)cc4)cc3)nc2cc1N [Compound 146]
